Data taken from patent publication US8168592B2 (Amgen Inc., priority 2005, dated 2012).
Square brackets hold non-standard residues; d marks the D form. Peptide text beside a SMILES is read from it. Cit = NC(=O)NCCC[C@H](N)C(=O)O

target: T1, CGRP1 receptor (Homo sapiens, UniProt O60894+Q16602); test: in vitro CGRP1 receptor mediated cAMP assay in SK-N-MC cells; format: cell-based; conditions: Table 2A; read-out: IC50
T1 construct: SK-N-MC cells express CRLR and RAMP1, which form CGRP1 receptor; endogenous in cells; host or cells: SK-N-MC human neuroblastoma cells
Summary of the method: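 Human SK-N-MC neuroblastoma cells, which endogenously express CRLR/RAMP1, were plated two days before assay and preincubated in plasma-free medium for 15 minutes at room temperature. Cells were then lysed for 30 minutes at 37° C, and cAMP in the lysates was quantified by competitive cAMP-AP chemiluminescent ELISA.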

T1 sequence (Q16602 23-461): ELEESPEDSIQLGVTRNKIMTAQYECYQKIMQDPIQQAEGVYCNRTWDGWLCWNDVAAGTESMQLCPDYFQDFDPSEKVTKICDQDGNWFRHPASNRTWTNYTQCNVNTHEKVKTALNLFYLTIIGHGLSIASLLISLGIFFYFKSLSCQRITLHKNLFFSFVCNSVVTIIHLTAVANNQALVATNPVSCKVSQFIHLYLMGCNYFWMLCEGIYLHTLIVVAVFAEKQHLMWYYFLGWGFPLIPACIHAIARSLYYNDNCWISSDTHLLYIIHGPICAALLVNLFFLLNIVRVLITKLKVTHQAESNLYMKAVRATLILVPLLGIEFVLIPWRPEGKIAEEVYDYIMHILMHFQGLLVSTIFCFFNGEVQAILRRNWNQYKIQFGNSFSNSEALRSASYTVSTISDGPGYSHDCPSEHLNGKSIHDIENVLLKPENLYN
T1 sequence (O60894 27-148): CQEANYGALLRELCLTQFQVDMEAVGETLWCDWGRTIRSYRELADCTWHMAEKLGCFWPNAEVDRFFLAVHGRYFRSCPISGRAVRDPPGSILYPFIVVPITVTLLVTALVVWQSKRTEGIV

Row | Compound | IC50 [nM]
1 | CC(=O)N[C@@H](Cc1c[nH]c2ccccc12)C(=O)N[C@H](C(=O)N[C@H](C(=O)N[C@@H](Cc1cnc[nH]1)C(=O)N[C@@H](CCCNC(N)=O)C(=O)N[C@@H](CC(C)C)C(=O)N[C@@H](C)C(=O)NCC(=O)N[C@@H](CC(C)C)C(=O)N[C@@H](CC(C)C)C(=O)N[C@@H](CO)C(=O)N[C@@H](CCCNC(N)=O)C(=O)N[C@@H](CO)C(=O)NCC(=O)NCC(=O)N[C@H](C(=O)N[C@H](C(=O)N[C@@H](CCCCNC(=N)N)C(=O)N[C@@H](CCCCN)C(=O)N[C@@H](CC(N)=O)C(=O)N[C@@H](Cc1ccccc1)C(=O)N[C@H](C(=O)N1CCC[C@H]1C(=O)N[C@H](C(=O)N[C@@H](CC(=O)O)C(=O)N[C@H](C(=O)NCC(=O)N(C)CC(=O)N[C@@H](Cc1ccccc1)C(=O)N[C@@H](C)C(=O)N[C@@H](Cc1ccccc1)C(N)=O)C(C)C)[C@@H](C)O)C(C)C)C(C)C)C(C)C)[C@@H](C)O)C(C)C [compound 672] | 3.19 to 4.42

same assay, conditions: Table 2C; unconjugated peptide; read-out: Peptide IC50

Row | Compound | IC50 [nM]
2 | CC(=O)N[C@@H](Cc1c[nH]c2ccccc12)C(=O)N[C@H](C(=O)N[C@H](C(=O)N[C@@H](Cc1cnc[nH]1)C(=O)N[C@@H](CCCNC(N)=O)C(=O)N[C@@H](CC(C)C)C(=O)N[C@@H](C)C(=O)NCC(=O)N[C@@H](CC(C)C)C(=O)N[C@@H](CC(C)C)C(=O)N[C@@H](CO)C(=O)N[C@@H](CCCN=C(N)N)C(=O)N[C@@H](CO)C(=O)NCC(=O)NCC(=O)N[C@H](C(=O)N[C@H](C(=O)N[C@@H](CCCN=C(N)N)C(=O)N[C@@H](CCCCN)C(=O)N[C@@H](CC(N)=O)C(=O)N[C@@H](Cc1ccccc1)C(=O)N[C@H](C(=O)N1CCC[C@H]1C(=O)N[C@H](C(=O)N[C@@H](CC(=O)O)C(=O)N[C@H](C(=O)NCC(=O)N1CCC[C@H]1C(=O)N[C@@H](Cc1ccccc1)C(=O)N[C@@H](C)C(=O)N[C@@H](Cc1ccccc1)C(N)=O)C(C)C)[C@@H](C)O)C(C)C)C(C)C)C(C)C)[C@@H](C)O)C(C)C [compound 861] | 0.57
3 | CC(=O)N[C@@H](Cc1c[nH]c2ccccc12)C(=O)N[C@H](C(=O)N[C@H](C(=O)N[C@@H](Cc1cnc[nH]1)C(=O)N[C@@H](CCCNC(=N)N)C(=O)N[C@@H](CC(C)C)C(=O)N[C@@H](C)C(=O)NCC(=O)N[C@@H](CC(C)C)C(=O)N[C@@H](CC(C)C)C(=O)N[C@@H](CO)C(=O)N[C@@H](CCCNC(N)=O)C(=O)N[C@@H](CO)C(=O)NCC(=O)NCC(=O)N[C@H](C(=O)N[C@H](C(=O)N[C@@H](CCCN=C(N)N)C(=O)N[C@@H](CCCCN)C(=O)N[C@@H](CC(N)=O)C(=O)N[C@@H](Cc1ccccc1)C(=O)N[C@H](C(=O)N1CCC[C@H]1C(=O)N[C@H](C(=O)N[C@@H](CC(=O)O)C(=O)N[C@H](C(=O)NCC(=O)N1CCC[C@H]1C(=O)N[C@@H](Cc1ccccc1)C(=O)N[C@@H](C)C(=O)N[C@@H](Cc1ccccc1)C(N)=O)C(C)C)[C@@H](C)O)C(C)C)C(C)C)C(C)C)[C@@H](C)O)C(C)C [compound 862] | 0.58
4 | CC(=O)N[C@@H](Cc1c[nH]c2ccccc12)C(=O)N[C@H](C(=O)N[C@H](C(=O)N[C@@H](Cc1c[nH]cn1)C(=O)N[C@@H](CCCNC(=N)N)C(=O)N[C@@H](CC(C)C)C(=O)N[C@@H](C)C(=O)NCC(=O)N[C@@H](CC(C)C)C(=O)N[C@@H](CC(C)C)C(=O)N[C@@H](CO)C(=O)N[C@@H](CCCCNC(=N)N)C(=O)N[C@@H](CO)C(=O)NCC(=O)NCC(=O)N[C@H](C(=O)N[C@H](C(=O)N[C@@H](CCCNC(=N)N)C(=O)N[C@@H](CCCCN)C(=O)N[C@@H](CC(N)=O)C(=O)N[C@@H](Cc1ccccc1)C(=O)N[C@H](C(=O)N1CCC[C@H]1C(=O)N[C@H](C(=O)N[C@@H](CC(=O)O)C(=O)N[C@H](C(=O)NCC(=O)N1CCC[C@H]1C(=O)N[C@@H](Cc1ccccc1)C(=O)N[C@@H](C)C(=O)N[C@@H](Cc1ccccc1)C(N)=O)C(C)C)[C@@H](C)O)C(C)C)C(C)C)C(C)C)[C@@H](C)O)C(C)C [compound 864] | 0.57
5 | CC(=O)N[C@@H](Cc1c[nH]c2ccccc12)C(=O)N[C@H](C(=O)N[C@H](C(=O)N[C@@H](Cc1c[nH]cn1)C(=O)N[C@@H](CCCCNC(=N)N)C(=O)N[C@@H](CC(C)C)C(=O)N[C@@H](C)C(=O)NCC(=O)N[C@@H](CC(C)C)C(=O)N[C@@H](CC(C)C)C(=O)N[C@@H](CO)C(=O)N[C@@H](CCCNC(=N)N)C(=O)N[C@@H](CO)C(=O)NCC(=O)NCC(=O)N[C@H](C(=O)N[C@H](C(=O)N[C@@H](CCCNC(=N)N)C(=O)N[C@@H](CCCCN)C(=O)N[C@@H](CC(N)=O)C(=O)N[C@@H](Cc1ccccc1)C(=O)N[C@H](C(=O)N1CCC[C@H]1C(=O)N[C@H](C(=O)N[C@@H](CC(=O)O)C(=O)N[C@H](C(=O)NCC(=O)N1CCC[C@H]1C(=O)N[C@@H](Cc1ccccc1)C(=O)N[C@@H](C)C(=O)N[C@@H](Cc1ccccc1)C(N)=O)C(C)C)[C@@H](C)O)C(C)C)C(C)C)C(C)C)[C@@H](C)O)C(C)C [compound 865] | 0.44
6 | CC[C@H](C)[C@H](NC(=O)[C@H](CCCNC(N)=O)NC(=O)[C@H](Cc1c[nH]cn1)NC(=O)[C@@H](NC(=O)[C@@H](NC(=O)[C@H](Cc1c[nH]c2ccccc12)NC(C)=O)C(C)C)[C@@H](C)O)C(=O)N[C@@H](CC(C)C)C(=O)N[C@@H](C)C(=O)NCC(=O)N[C@@H](CC(C)C)C(=O)N[C@@H](CC(C)C)C(=O)N1CCC[C@H]1C(=O)N[C@@H](CCCNC(=N)N)C(=O)N[C@@H](CO)C(=O)NCC(=O)NCC(=O)N[C@H](C(=O)N[C@H](C(=O)N[C@@H](CCCNC(=N)N)C(=O)N[C@@H](CCCCN)C(=O)N[C@@H](CC(N)=O)C(=O)N[C@@H](Cc1ccccc1)C(=O)N[C@H](C(=O)N1CCC[C@H]1C(=O)N[C@H](C(=O)N[C@@H](CC(=O)O)C(=O)N[C@H](C(=O)NCC(=O)N1CCC[C@H]1C(=O)N[C@@H](Cc1ccccc1)C(=O)N[C@@H](C)C(=O)N[C@@H](Cc1ccccc1)C(N)=O)C(C)C)[C@@H](C)O)C(C)C)C(C)C)C(C)C [compound 867] (Ac-WVTH[Cit]ILAGLLPRSGGVVRKNFVPTDVGPFAF-NH2) | 2.31
7 | CC(=O)N[C@@H](Cc1c[nH]c2ccccc12)C(=O)N[C@H](C(=O)N[C@H](C(=O)N[C@@H](Cc1c[nH]cn1)C(=O)N[C@@H](CCCNC(N)=O)C(=O)N[C@@H](CC(C)C)C(=O)N[C@@H](C)C(=O)NCC(=O)N[C@@H](CC(C)C)C(=O)N[C@@H](CC(C)C)C(=O)N[C@@H](CO)C(=O)N[C@@H](CCCNC(=N)N)C(=O)N1CCC[C@H]1C(=O)NCC(=O)NCC(=O)N[C@H](C(=O)N[C@H](C(=O)N[C@@H](CCCNC(=N)N)C(=O)N[C@@H](CCCCN)C(=O)N[C@@H](CC(N)=O)C(=O)N[C@@H](Cc1ccccc1)C(=O)N[C@H](C(=O)N1CCC[C@H]1C(=O)N[C@H](C(=O)N[C@@H](CC(=O)O)C(=O)N[C@H](C(=O)NCC(=O)N1CCC[C@H]1C(=O)N[C@@H](Cc1ccccc1)C(=O)N[C@@H](C)C(=O)N[C@@H](Cc1ccccc1)C(N)=O)C(C)C)[C@@H](C)O)C(C)C)C(C)C)C(C)C)[C@@H](C)O)C(C)C [compound 868] (Ac-WVTH[Cit]LAGLLSRPGGVVRKNFVPTDVGPFAF-NH2) | 3

same assay, conditions: Table 2D; read-out: IC50

Row | Compound | IC50 [nM]
8 | CC(=O)N[C@@H](Cc1c[nH]c2ccccc12)C(=O)N[C@H](C(=O)N[C@H](C(=O)N[C@@H](Cc1c[nH]cn1)C(=O)N[C@@H](CCCNC(=N)N)C(=O)N[C@@H](CC(C)C)C(=O)N[C@@H](C)C(=O)NCC(=O)N[C@@H](CC(C)C)C(=O)N[C@@H](CC(C)C)C(=O)N[C@@H](CO)C(=O)N[C@H](CCCNC(=N)N)C(=O)N[C@@H](CO)C(=O)NCC(=O)NCC(=O)N[C@H](C(=O)N[C@H](C(=O)N[C@@H](CCCNC(=N)N)C(=O)N[C@@H](CS)C(=O)N[C@@H](CC(N)=O)C(=O)N[C@@H](Cc1ccccc1)C(=O)N[C@H](C(=O)N1CCC[C@H]1C(=O)N[C@H](C(=O)N[C@@H](CC(=O)O)C(=O)N[C@H](C(=O)NCC(=O)N1CCC[C@H]1C(=O)N[C@@H](Cc1ccccc1)C(=O)N[C@@H](C)C(=O)N[C@@H](Cc1ccccc1)C(N)=O)C(C)C)[C@@H](C)O)C(C)C)C(C)C)C(C)C)[C@@H](C)O)C(C)C [compound 776] (Ac-WVTHRLAGLLS[dR]SGGVVRCNFVPTDVGPFAF-NH2) | 0.59
9 | CC(=O)N[C@@H](Cc1c[nH]c2ccccc12)C(=O)N[C@H](C(=O)N[C@H](C(=O)N[C@@H](Cc1cnc[nH]1)C(=O)N[C@@H](CCCCNC(=N)N)C(=O)N[C@@H](CC(C)C)C(=O)N[C@@H](C)C(=O)NCC(=O)N[C@@H](CC(C)C)C(=O)N[C@@H](CC(C)C)C(=O)N[C@@H](CO)C(=O)N[C@@H](CCCCNC(=N)N)C(=O)N[C@@H](CO)C(=O)NCC(=O)NCC(=O)N[C@H](C(=O)N[C@H](C(=O)N[C@@H](CCCNC(=N)N)C(=O)N[C@@H](CCCCN)C(=O)N[C@@H](CC(N)=O)C(=O)N[C@@H](Cc1ccccc1)C(=O)N[C@H](C(=O)N1CCC[C@H]1C(=O)N[C@H](C(=O)N[C@@H](CC(=O)O)C(=O)N[C@H](C(=O)NCC(=O)N1CCC[C@H]1C(=O)N[C@@H](Cc1ccccc1)C(=O)N[C@@H](C)C(=O)N[C@@H](Cc1ccccc1)C(N)=O)C(C)C)[C@@H](C)O)C(C)C)C(C)C)C(C)C)[C@@H](C)O)C(C)C [compound 784] | 2.1
10 | CC(=O)N[C@@H](Cc1c[nH]c2ccccc12)C(=O)N[C@H](C(=O)N[C@H](C(=O)N[C@@H](Cc1c[nH]cn1)C(=O)N[C@@H](CCCNC(=N)N)C(=O)N[C@@H](CC(C)C)C(=O)N[C@@H](C)C(=O)NCC(=O)N[C@@H](CC(C)C)C(=O)N[C@@H](C)C(=O)N[C@@H](CO)C(=O)N[C@@H](CCCNC(N)=O)C(=O)N[C@@H](CO)C(=O)NCC(=O)NCC(=O)N[C@H](C(=O)N[C@H](C(=O)N[C@@H](CCCNC(=N)N)C(=O)N[C@@H](CCCCN)C(=O)N[C@@H](CC(N)=O)C(=O)N[C@@H](Cc1ccccc1)C(=O)N[C@H](C(=O)N1CCC[C@H]1C(=O)N[C@H](C(=O)N[C@@H](CC(=O)O)C(=O)N[C@H](C(=O)NCC(=O)N1CCC[C@H]1C(=O)N[C@@H](Cc1ccccc1)C(=O)N[C@@H](C)C(=O)N[C@@H](Cc1ccccc1)C(N)=O)C(C)C)[C@@H](C)O)C(C)C)C(C)C)C(C)C)[C@@H](C)O)C(C)C [compound 850] (Ac-WVTHRLAGLAS[Cit]SGGVVRKNFVPTDVGPFAF-NH2) | 1.85
